Laboratory results: the CheMixHub ionic liquid set

Experiment: xn = mol fraction of the nth substance listed

CCCC[n+]1ccn(C)c1.F[P-](F)(F)(F)(F)F + CC#N
298.15 K, 101 kPa
Settings | electrical conductivity [S/m] | viscosity [mPa·s]
x2 = 0 | 0.157 | 260
x2 = 0.099 | 0.245 | 153
x2 = 0.1938 | 0.374 | 93
x2 = 0.1945 | – | 86
x2 = 0.2936 | 0.552 | 53.6
x2 = 0.3885 | 0.84 | 31.3
x2 = 0.4978 | 1.3 | 16.2
x2 = 0.5896 | 1.84 | 8.8
x2 = 0.6994 | 2.71 | 4.18
x2 = 0.7855 | 3.46 | 2.27
x2 = 0.846 | 3.93 | 1.48
x2 = 0.8918 | 4.18 | 1.08

CCCCn1cc[n+](CCOCC[n+]2ccn(CCCC)c2)c1.O=S(=O)([N-]S(=O)(=O)C(F)(F)F)C(F)(F)F.O=S(=O)([N-]S(=O)(=O)C(F)(F)F)C(F)(F)F + CC[n+]1ccn(C)c1.N#C[N-]C#N + O=S(=O)([N-]S(=O)(=O)C(F)(F)F)C(F)(F)F.[Li+]
100 kPa, x1 = 0.1503, x2 = 0.7472
Settings | electrical conductivity [S/m]
298 K | 0.512
303 K | 0.654
313 K | 0.829
323 K | 1.11
333 K | 1.45
343 K | 1.84

CC#N + CCCCCC[P+](CCCC)(CCCC)CCCC.F[B-](F)(F)F
100 kPa, x2 = 0
Settings | viscosity [mPa·s]
293.15 K | 0.354
298.15 K | 0.338
303.15 K | 0.324
308.15 K | 0.31
313.15 K | 0.298
318.15 K | 0.286

CCCC[n+]1cccc(C)c1.O=S(=O)([N-]S(=O)(=O)C(F)(F)F)C(F)(F)F + CC(C)O
Settings | electrical conductivity [S/m]
298.15 K, 101.3 kPa, x2 = 0.3381 | 0.642

CC#N + C=C[n+]1ccn(CC(N)=O)c1.O=S(=O)([N-]S(=O)(=O)C(F)(F)F)C(F)(F)F
Settings | viscosity [mPa·s]
323.15 K, 100 kPa, x2 = 0 | 0.262

CCCC[n+]1ccn(C)c1.F[P-](F)(F)(F)(F)F + CCOC(C)=O
298.15 K
Settings | electrical conductivity, x2 = 0.2746 [S/m] | electrical conductivity, x2 = 0.4156 [S/m] | electrical conductivity, x2 = 0.7532 [S/m] | electrical conductivity, x2 = 0.8821 [S/m] | viscosity, x2 = 0.2746 [mPa·s] | viscosity, x2 = 0.4156 [mPa·s] | viscosity, x2 = 0.6524 [mPa·s] | viscosity, x2 = 0.7532 [mPa·s] | viscosity, x2 = 0.8821 [mPa·s]
101 kPa | 0.452 | 0.67 | 1.12 | 0.726 | 60.7 | 27.8 | – | 3.33 | 1.43
101.3 kPa | – | – | – | – | – | – | 6.22 | – | –

CC(=O)c1ccccc1 + CCCC[n+]1ccn(C)c1.F[B-](F)(F)F
viscosity [mPa·s], 100 kPa
Settings | 293.15 K | 303.15 K | 313.15 K | 323.15 K | 333.15 K
x1 = 0.0513 | 79 | 50 | 30.5 | 20.4 | 12.9
x1 = 0.1001 | 56 | 38.6 | 21.6 | 15.4 | 11.5
x1 = 0.2046 | 43.6 | 30.8 | 19 | 13.7 | 10.3
x1 = 0.306 | 42.4 | 28.6 | 16.9 | 12.2 | 9.2
x1 = 0.3976 | 41.7 | 25.9 | 11.8 | 9.7 | 6.7
x1 = 0.5064 | 34.4 | 21.3 | 10.8 | 7.6 | 6.2
x1 = 0.6079 | 29.5 | 16.9 | 9.8 | 6.5 | 5.7
x1 = 0.7065 | 26 | 13.7 | 8.3 | 5.4 | –
x1 = 0.8054 | 22.3 | 11.7 | 7.1 | 4.79 | –
x1 = 0.9026 | 11.8 | 8 | 5.7 | 3.81 | 3.23
x1 = 0.9516 | 7 | 5 | 3.65 | 2.8 | 2.22
x1 = 1 | 1.91 | 1.65 | 1.37 | 1.17 | 1.02

CCCC[n+]1ccn(C)c1.O=S(=O)([N-]S(=O)(=O)C(F)(F)F)C(F)(F)F + OCCOCCOCCOCCO
Settings | viscosity [mPa·s]
298.15 K, 101 kPa, x2 = 0 | 45.3

CCCC[n+]1ccn(C)c1.O=S(=O)([N-]S(=O)(=O)C(F)(F)F)C(F)(F)F + CCCCCCCCO
Settings | viscosity [mPa·s]
298 K, 100 kPa, x1 = 1 | 49.7

CN(C)C=O + CCCCCCCC[n+]1ccn(C)c1.F[P-](F)(F)(F)(F)F
101 kPa, x2 = 0
Settings | viscosity [mPa·s]
293.15 K | 0.881
303.15 K | 0.771
313.15 K | 0.668
323.15 K | 0.605
333.15 K | 0.553
353.15 K | 0.479
363.15 K | 0.447

CCCC[n+]1ccn(C)c1.O=S(=O)([N-]S(=O)(=O)C(F)(F)F)C(F)(F)F + CCCCCCCO
Settings | viscosity [mPa·s]
298 K, 100 kPa, x1 = 1 | 49.7

CCCC[n+]1ccn(C)c1.F[P-](F)(F)(F)(F)F + CCCC[n+]1ccn(C)c1.O=S(=O)([O-])C(F)(F)F
Settings | viscosity [mPa·s]
318.15 K, 100 kPa, x1 = 1 | 87.7

COCCCn1cc[n+](C)c1.O=S(=O)([N-]S(=O)(=O)C(F)(F)F)C(F)(F)F + O
Settings | viscosity [mPa·s]
283 K, 101 kPa, x1 = 0.8316 | 82.6

CN(C)C=O + CCCC[P+](C)(CCCC)CCCC.COS(=O)(=O)[O-]
100 kPa, x2 = 0
Settings | viscosity [mPa·s]
308.15 K | 0.717
323.15 K | 0.63

CN(C)C=O + CC[n+]1ccn(C)c1.F[B-](F)(F)F
101 kPa, x1 = 1
Settings | viscosity [mPa·s]
313.15 K | 0.667
333.15 K | 0.541

CCCC[n+]1ccccc1.O=S(=O)([N-]S(=O)(=O)C(F)(F)F)C(F)(F)F + CCCC[n+]1ccccc1.F[B-](F)(F)F
101 kPa
Settings | viscosity [mPa·s]
303.15 K, x1 = 0.2162 | 91.2
303.15 K, x1 = 0.7643 | 58.2
313.15 K, x1 = 0.4327 | 48.4
313.15 K, x1 = 0.5429 | 46.2
313.15 K, x1 = 0.6523 | 42.5
313.15 K, x1 = 0.8822 | 36.3
323.15 K, x1 = 1 | 24.2
333.15 K, x1 = 0.6523 | 21.8
343.15 K, x1 = 0.1119 | 21.9
343.15 K, x1 = 0.2162 | 19.9
343.15 K, x1 = 0.8822 | 14.5
353.15 K, x1 = 0.1119 | 16.5
353.15 K, x1 = 0.4327 | 13.7
353.15 K, x1 = 0.5429 | 13.2
353.15 K, x1 = 1 | 10.9

CCOC(C)=O + CCCC[n+]1ccn(C)c1.O=S(=O)([N-]S(=O)(=O)C(F)(F)F)C(F)(F)F
298.15 K, 101 kPa
Settings | viscosity [mPa·s]
x1 = 0.092 | 40
x1 = 0.2303 | 26.5

O=C1CCCCCO1 + CCCC[n+]1ccn(C)c1.O=S(=O)([N-]S(=O)(=O)C(F)(F)F)C(F)(F)F
electrical conductivity [S/m], 100 kPa, frequency 0.01 MHz
Settings | 293.15 K | 298.15 K | 303.15 K | 308.15 K | 313.15 K | 318.15 K | 323.15 K
x2 = 0.05 | 0.137 | 0.15 | 0.162 | 0.175 | 0.188 | 0.201 | 0.209
x2 = 0.1002 | 0.269 | 0.294 | 0.319 | 0.338 | 0.364 | 0.393 | 0.421
x2 = 0.1505 | 0.378 | 0.414 | 0.454 | 0.485 | 0.521 | 0.565 | 0.605
x2 = 0.1985 | 0.504 | 0.548 | 0.598 | 0.649 | 0.706 | 0.772 | 0.847
x2 = 0.3001 | 0.589 | 0.647 | 0.715 | 0.779 | 0.855 | 0.943 | 1.03
x2 = 0.3987 | 0.567 | 0.64 | 0.721 | 0.803 | 0.894 | 0.983 | 1.08
x2 = 0.4903 | 0.526 | 0.594 | 0.674 | 0.766 | 0.856 | 0.955 | 1.05
x2 = 0.6309 | 0.451 | 0.523 | 0.607 | 0.688 | 0.774 | 0.872 | 0.969
x2 = 0.6988 | 0.418 | 0.489 | 0.564 | 0.645 | 0.73 | 0.829 | 0.928
x2 = 0.8042 | 0.374 | 0.441 | 0.515 | 0.598 | 0.689 | 0.783 | 0.885
x2 = 0.883 | 0.356 | 0.417 | 0.489 | 0.573 | 0.665 | 0.759 | 0.862
